# Like-named read-outs stand apart in the source and are kept apart here.
# Test system: GM-HSPC and their progeny
# Conditions: for Enrichment of frequency of CD45+/GFP+ cells in spleen and bone marrow: necropsy 11 weeks after transplantation
# Protocol: All animals except control mice received 20 mg/kg O^6BG (Sigma-Aldrich, St. Louis, Mo.) followed by 5 mg/kg BCNU (Sigma-Aldrich, St. Louis, Mo.) mouse 1.5 hour later via IP injection. Drug doses were administered at either at the 7th and 8th or 7th, 8th, and 9th weeks post-transplantation. O^6BG was prepared in 35% PEG-400 (Sigma-Aldrich, St. Louis, Mo.) and 60% injectable saline.
# Lentiviral vector was produced by calcium phosphate precipitation in HEK293T cells as previously described by Li M J et al. (2005). CD34+ cells were pre-stimulated overnight in SFT6. Lentiviral transduction was conducted at 1×10^6 cells/mL on Retronectin™ (Takara, Otsu-Shiga Japan)-coated non-tissue culture T-75 flask for 24 h in the presence of […] rapamycin (Sigma-Aldrich, St. Louis, Mo.). Lentivirus and rapamycin were removed and cells were washed once before being resuspended for transplantation in 0.9% NaCl saline solution with Fc/IL-7 as described above.
# Mice were necropsied at 16 or 25 weeks post transplantation for analysis of engraftment. Single cell suspensions of bone marrow (femurs) and spleen were prepared by mechanical dissociation and red cells lysed using ACK lysis Buffer (Sigma-Aldrich, St. Louis, Mo.). All cell suspensions were pre-treated with human immunoglobulin (GammaGard, Baxter Healthcare Corp. Deerfield, Ill.) for 30 minutes to block nonspecific antibody staining. Cell suspensions were stained with a human pan-leukocyte antibody to CD45-PC5 (BioLegendR, San Diego, Calif.), and lineage specific antihuman, CD3-ECD, CD4-APC, CD14-APC-Alexa-750, CD19-PE (Invitrogen, Carlsbad, Calif.), and CD8β-PC5 (Beckman Coulter, Brea, Calif.), for 20 minutes and washed 2 times with 1 mL of PBS containing 0.1% BSA (Sigma-Aldrich, St Louis, Mo.). BM cells were stained with antibodies to human CD45-PC5, CD34-PC7, CD45-ECD (Beckman Coulter, Brea, Calif.), CD33-PC5 (BD Biosciences, San Diego, Calif.), CD19-PE, and CD14-APC-Alexa750 (Invitrogen, Carlsbad, Calif.) for 20 minutes and washed 2 times with 1 mL of PBS containing 0.1% BSA. To establish analytical gates and background staining, bone marrow and spleen samples from 2-3 mice that received no human cells mice were stained with the same antibody panel. Samples were analyzed using a Gallios flow cytometer (Beckman Coulter, Hialeah, Fla.) and data analyzed with FCS Express software (De Novo Software, Los Angeles, Calif.).
# Lentiviral vectors expressing unique combinations of small anti-HIV RNAs expressed from a naturally occurring micro RNA cluster (MCM-7) are known. See Chung J, et al. Endogenous MCMI microRNA cluster as a novel platform to multiplex small interfering and nucleolar RNAs for combinational HIV-1 gene therapy. Human gene therapy. 2012; 23:1200-1208. […] CD34+ HSPC were transduced with this vector and used to transplant NSG mice as described in materials and methods. Animals were treated with O^6BG and BCNU at weeks 7 and 8 (2× treatment) or weeks 7, 8 and 9 (3× treatment) following transplantation. Two weeks later (11 weeks following transplantation) animals were necropsied and the level of engraftment of the spleen and bone marrow were determined.
# [1] = second experiment, different donor, 7 weeks recovery with weekly Fc/IL-7
substance,measurement,setting,value
O^6-benzylguanine; bis-chloronitrosourea [O^6BG/BCNU],Enrichment in GM progeny in bone marrow and spleen,2-3 rounds of treatment,4-8 fold
same,Engraftment of spleen and bone marrow with human cells relative to untreated control,"2× and 3× treated animals, p<0.0001",reduced
same,Enrichment of frequency of CD45+/GFP+ cells in spleen and bone marrow,2× treatment (weeks 7 and 8),10 fold
same,Enrichment of frequency of CD45+/GFP+ cells in spleen and bone marrow,"3× treatment (weeks 7, 8 and 9)",15 fold
same,CD45+ cells in bone marrow and spleen,[1],depletion
same,Enrichment of CD3+/CD4+/GFP+ T-cells,[1],no significant enrichment
same,Frequency of CD45+/GFP+ human cells and CD14+/CD4+/GFP+ monocytes,[1],concomitant increase
same,Increase of CD4+/CD14+/GFP+ monocytes in the spleens,three treatments,3 fold
same,Increase of average frequency of CD3+/CD4+ T-cells in the spleen,treatment performed three times,3 fold

# From US20150342165A1, “HUMANIZED MOUSE AND METHODS OF USING THE SAME” (City of Hope, priority 2014, published 2015)
